Assay results: patent publication EP0795549A1, “Bis-aryloxy(amino)-triazinyl-oxy(amino)aryl derivatives, their preparation and their use as antiviral agents” (American Cyanamid Company, priority 1996, dated 1997)
Like-named read-outs stand apart in the source and are kept apart here.

Tests used:
[1] = test system: RSV (A2); assay: viral yield reduction (growth inhibition) assay, RSV; format: cell-based, Respiratory Syncitial Virus; settings: for Antiviral IC50 µg/ml RSV/ Vero: format not given; for IC50 µG/mL IN GROWTH […]/ VERO: vero host cells
Description: (§1) The compounds were tested for biological activity using viral yield reduction assays. Host cells (indicated as HF for human foreskin fibroblasts and as vero, the commonly used African green monkey cell line, in Tables 1 and 1a) were plated at 4 x 10^4 cells/well in cell growth medium with 2% fetal bovine serum or 2% calf serum in 96-well plates (0.1 ml/well) and incubated overnight. The compounds were added to individual wells to give final concentrations ranging from 50 to 0.1 µg/ml in two-fold concentration steps. After 1 hour, virus was added, and the incubation was continued for 4 days with RSV or CMV and for 2 days with HSV. At the end of the experiment, the amount of virus growth was quantitated and the yield reduction at various concentrations of compound was calculated. This allows estimation of the concentration of compound giving 50% reduction in virus growth (IC50).

[2] = test system: CMV (Ad169); assay: viral yield reduction (growth inhibition) assay, CMV; format: cell-based, Cytomegalovirus; settings: for Antiviral IC50 µg/ml CMV /HF: Table 1a
Description: as §1

[3] = test system: human foreskin fibroblasts (HF); assay: effect on cells: appearance of fixed, crystal violet-stained monolayer (HF); format: cell-based; set-up: key: N, no effect on the appearance of the alcohol-fixed and crystal violet-stained cell monolayer at the indicated compound concentration.; L, lightening of the intensity of staining (compared to controls) of the alcohol-fixed and crystal violet-stained cell monolayer at the indicated compound concentration but not at half that concentration
[4] = test system: HSV1 (Patton); assay: viral yield reduction (growth inhibition) assay, HSV; format: cell-based, Herpes Simplex Virus; settings: for Antiviral IC50 µg/ml HSV Vero: Table 1a, format not given
Description: as §1

[5] = test system: vero cells; assay: effect on cells: appearance of fixed, crystal violet-stained monolayer (vero); format: cell-based, African green monkey; set-up: key: N, no effect on the appearance of the alcohol-fixed and crystal violet-stained cell monolayer at the indicated compound concentration.; L, lightening of the intensity of staining (compared to controls) of the alcohol-fixed and crystal violet-stained cell monolayer at the indicated compound concentration but not at half that concentration; settings: at 75 µg/ml
[6] = test system: RSV A2; format: in vivo, cotton rats
[7] = test system: RSV; assay: viral plaque reduction assay, RSV; format: cell-based, Respiratory Syncitial Virus
[8] = test system: CMV (Ad169); assay: viral plaque reduction assay, CMV; format: cell-based, Cytomegalovirus
[9] = test system: HSV1 (Patton); assay: viral plaque reduction assay, HSV1; format: cell-based, Herpes Simplex Virus; settings: for IC50µG/mL IN PLAQUE ASSAY HSV/ VER O: HSV1 (Patton), vero host cells
[10] = Table 1a, HF, yield reduction or plaque format not specified
[11] = EXPT 3, i.n. 30 mg/k d1,2,3, Lavage/CPE
[12] = EXPT 3, i.n. 30 mg/k d1,2,3, Lavage/Plaque
[13] = EXPT 3, i.n. 30 mg/k d1,2,3, Lung/Plaque
[14] = EXPT 3, i.n. d0 15 mg/k, d1 30 mg/k, Lavage/CPE
[15] = EXPT 3, i.n. d0 15 mg/k, d1 30 mg/k, Lavage/Plaque
[16] = EXPT 3, i.n. d0 15 mg/k, d1 30 mg/k, Lung/Plaque
[17] = EXPT 3, i.n. d0 15 mg/k, d1,2,3 30 mg/k, Lavage/CPE
[18] = EXPT 3, i.n. d0 15 mg/k, d1,2,3 30 mg/k, Lavage/Plaque
[19] = EXPT 3, i.n. d0 15 mg/k, d1,2,3 30 mg/k, Lung/Plaque
[20] = EXPT 3, i.p. 30 mg/k d1,2,3, Lavage/CPE
[21] = EXPT 3, i.p. 30 mg/k d1,2,3, Lavage/Plaque
[22] = EXPT 3, i.p. 30 mg/k d1,2,3, Lung/Plaque

## 1,2',1'',1'''-[(2,2'-disulfo[1,1'-biphenyl]-4,4'-diyl)-bis[imino-1,3,5-triazine-6,2,4-triylbis(imino-3,1-phenylenesulfonyl)]tetrakis[3,5-piperidinedicarboxylic acid [Example 54]
[1]; [10]
  Antiviral IC50 µg/ml RSV/ HF: 35 µg/mL
[1]; Table 1a
  Antiviral IC50 µg/ml RSV/ Vero: >50 µg/mL
[2]; HF, format not given
  Antiviral IC50 µg/ml CMV /HF: >50 µg/mL
[3]; at 75 µg/ml
  Effect on cells @ µg/ml indicated HF: N@75

## 4',4-Bis-{4,6-bis-[3-(3,5-dicarbamoyl-piperidine-1-sulfonyl)-phenylamino]-[1,3,5]triazin-2-ylamino}-biphenyl-2,2'disulfonic acid, disodium salt [Example 53]
[4]; HSV1 (Patton)
  Antiviral IC50 µg/ml HSV Vero: >50 µg/mL
[1]; [10]
  Antiviral IC50 µg/ml RSV/ HF: 2 µg/mL
[1]; Table 1a
  Antiviral IC50 µg/ml RSV/ Vero: 7 µg/mL
[5]
  Effect on cells @ µg/ml indicated Vero: N@75
[3]; at 75 µg/ml
  Effect on cells @ µg/ml indicated HF: N@75

## 4',4-Bis-{4,6-bis-[3-(bis-carbamoylmethyl-1-sulfamoyl)-phenylamino]-[1,3,5]triazin-2-ylamino}-biphenyl-2,2'-disulfonic acid, disodium salt [Example 43]
[4]; HSV1 (Patton)
  Antiviral IC50 µg/ml HSV Vero: 6 µg/mL
[1]; [10]
  Antiviral IC50 µg/ml RSV/ HF: 0.1 µg/mL
[2]; HF, format not given
  Antiviral IC50 µg/ml CMV /HF: 2.5 µg/mL
[5]
  Effect on cells @ µg/ml indicated Vero: N@75
[3]; at 75 µg/ml
  Effect on cells @ µg/ml indicated HF: N@75

## 4,4'-Bis-(4,6-bis-{3-[bis-(2-methylcarbamoyl-ethyl)-sulfamoyl]-phenylamino}-[1,3,5]triazin-2-ylamino)-biphenyl-2,2'-dicarboxylic acid, disodium salt [Example 35]
[4]; HSV1 (Patton)
  Antiviral IC50 µg/ml HSV Vero: >50 µg/mL
[1]; [10]
  Antiviral IC50 µg/ml RSV/ HF: 6 µg/mL
[2]; HF, format not given
  Antiviral IC50 µg/ml CMV /HF: >50 µg/mL
[5]
  Effect on cells @ µg/ml indicated Vero: N@75

## 4,4'-Bis-(4,6-bis{3-[bis-(2-carbamoyl-ethyl)-sulfamoyl]-phenylamino}- 1,3,5-triazin-2-ylamino]-biphenyl-2,2'-dicarboxylic acid, disodium salt [Example 30]
[4]; HSV1 (Patton)
  Antiviral IC50 µg/ml HSV Vero: >50 µg/mL
[1]; [10]
  Antiviral IC50 µg/ml RSV/ HF: 0.35 µg/mL
[2]; HF, format not given
  Antiviral IC50 µg/ml CMV /HF: 40 µg/mL
[3]; at 75 µg/ml
  Effect on cells @ µg/ml indicated HF: N@75

## 4,4'-Bis-[[4,6-bis-[[3-[[bis-[3-(methylamino)-3-oxopropyl]amino]sulfonyl]phenyl]amino]-1,3,5-triazin-2-yl]amino] [1,1'-biphenyl]-2,2'-disulfonic acid, disodium salt [Example 34]
[4]; HSV1 (Patton)
  Antiviral IC50 µg/ml HSV Vero: >50 µg/mL
[1]; [10]
  Antiviral IC50 µg/ml RSV/ HF: 1.2 µg/mL
[2]; HF, format not given
  Antiviral IC50 µg/ml CMV /HF: >50 µg/mL
[5]
  Effect on cells @ µg/ml indicated Vero: L@75
[3]; at 75 µg/ml
  Effect on cells @ µg/ml indicated HF: N@75

## 4,4'-Bis[4,6-di[3-aminophenyl-N,N-bis(2-carbamoyl-ethyl)sulfonylimino]-1,3,5-triazin-2-ylamino]-biphenyl-2,2'-disulfonic acid, disodium salt [Example 4]
[4]; HSV1 (Patton), HF host cells
  IC50 µG/mL IN GROWTH […]/ HF: 20 µg/mL
[4]; HSV1 (Patton), vero host cells
  IC50 µG/mL IN GROWTH […]/ VERO: 35 µg/mL
[6]; [11]
  Fold red. log10: 2.51 log10
  Mean titer log10/g lung: 1.67 log10/g lung
[6]; [12]
  Fold red. log10: 1.2 log10
  Mean titer log10/g lung: 3.09 log10/g lung
[6]; [13]
  Fold red. log10: 1.18 log10
  Mean titer log10/g lung: 3.37 log10/g lung
[6]; [14]
  Fold red. log10: 2.52 log10
  Mean titer log10/g lung: 1.66 log10/g lung
[6]; [15]
  Fold red. log10: 2.03 log10
  Mean titer log10/g lung: 2.26 log10/g lung
[6]; [16]
  Fold red. log10: 2.23 log10
  Mean titer log10/g lung: 2.32 log10/g lung
[6]; [17]
  Fold red. log10: 2.13 log10
  Mean titer log10/g lung: 2.05 log10/g lung
[6]; [18]
  Fold red. log10: 2.04 log10
  Mean titer log10/g lung: 2.25 log10/g lung
[6]; [19]
  Fold red. log10: 2.3 log10
  Mean titer log10/g lung: 2.25 log10/g lung
[6]; [20]
  Fold red. log10: 0 log10
  Mean titer log10/g lung: 4.18 log10/g lung
[6]; [21]
  Fold red. log10: 0.09 log10
  Mean titer log10/g lung: 4.1 log10/g lung
[6]; [22]
  Fold red. log10: 0.26 log10
  Mean titer log10/g lung: 3.92 log10/g lung
[6]; cotton rats, summary of Table 3
  inhibition of RSV in vivo (summary in words): inhibit RSV in vivo
[6]; rat, in vivo
  Fold red. log10: 1.63 log10
  Mean titer log10/g lung: 2.05 log10/g lung
[7]; RSV 2B, VERO, Post 2 hours
  IC50 (µG/ml) viral plaque formation: 0.08 µg/mL
[7]; RSV 3A, VERO, Post 2 hours
  IC50 (µG/ml) viral plaque formation: 0.15 µg/mL
[7]; RSV 9320, VERO, Post 2 hours
  IC50 (µG/ml) viral plaque formation: 0.18 µg/mL
[7]; RSV 18736, VERO, Post 2 hours
  IC50 (µG/ml) viral plaque formation: 0.06 µg/mL
[7]; RSV (A2), vero host cells
  IC50µG/mL IN PLAQUE ASSAY RSV/ VERO: 0.1 µg/mL
[7]; RSV A2, VERO, Post 2 hours
  IC50 (µG/ml) viral plaque formation: 0.28 µg/mL
[7]; RSV A2, VERO, Pre (pretreatment)
  IC50 (µG/ml) viral plaque formation: 0.1 µg/mL
[7]; RSV LONG, VERO, Post 2 hours
  IC50 (µG/ml) viral plaque formation: 0.21 µg/mL
[7]; RSV RSS2, VERO, Post 2 hours
  IC50 (µG/ml) viral plaque formation: 0.20 µg/mL
[7]; all RSV strains tested
  active against all RSV strains tested (plaque assays): 0.1 to 0.7 µg/mL
[1]; HF host cells
  IC50 µG/mL IN GROWTH […]/ HF: 0.1 µg/mL
[1]
  IC50 µG/mL IN GROWTH […]/ VERO: 0.1 µg/mL
[2]; HF host cells
  IC50 µG/mL IN GROWTH […]/ HF: 35 µg/mL
[8]; CMV (Ad169), HF host cells
  IC50µG/mL IN PLAQUE ASSAY CMV/ HF: > 30 µg/mL
[8]; HCMV Ad169, HF, Pre
  IC50 (µG/ml) viral plaque formation: >30 µg/mL
[9]
  IC50µG/mL IN PLAQUE ASSAY HSV/ VER O: 35 µg/mL
[9]; HSV1 Patton, VERO, Pre
  IC50 (µG/ml) viral plaque formation: 35 µg/mL

## 4,4'Bis-(4,6-bis-{3-[bis-(2-hydroxy-propyl)-sulfamoyl]-phenylamino}-[1,3,5]triazin-2-ylamino)biphenyl-2,2'-disulfonic acid, disodium salt [Example 40]
[4]; HSV1 (Patton)
  Antiviral IC50 µg/ml HSV Vero: 20 µg/mL
[1]; [10]
  Antiviral IC50 µg/ml RSV/ HF: 0.2 µg/mL
[2]; HF, format not given
  Antiviral IC50 µg/ml CMV /HF: 4 µg/mL
[5]
  Effect on cells @ µg/ml indicated Vero: N@75
[3]; at 75 µg/ml
  Effect on cells @ µg/ml indicated HF: N@75

## 4,4'Bis[4,6-di[3-aminophenyl-N,N-bis(2-hydroxyethyl)sulfonylimino]-1,3,5-triazin-2-ylamino]-stilbene-2,2'-disulfonic acid, disodium salt [Example 5]
[1]
  IC50 µG/mL IN GROWTH […]/ VERO: 0.4 µg/mL
[9]
  IC50µG/mL IN PLAQUE ASSAY HSV/ VER O: 8 µg/mL

## O=C([O-])c1cc(Nc2nc(Nc3cccc(S(=O)(=O)N(CCO)CCO)c3)nc(Nc3cccc(S(=O)(=O)N(CCO)CCO)c3)n2)ccc1-c1ccc(Nc2nc(Nc3cccc(S(=O)(=O)N(CCO)CCO)c3)nc(Nc3cccc(S(=O)(=O)N(CCO)CCO)c3)n2)cc1C(=O)[O-].[Na+].[Na+] [Example 57, 4,4'-Bis-(4,6-bis-{3-[bis-(2-hydroxyethyl)-sulfamoyl]-phenylamino}-[1,3,5]-triazin-2-ylamino)biphenyl-2,2'dicarboxylic acid, disodium salt]
[4]; Human alphaherpesvirus 1, Vero, read-out: Antiviral IC50 µg/ml HSV Vero
  IC50: 30 µg/mL
[1]; human respiratory syncytial virus, Table 1a, HF, yield reduction or plaque format not specified, read-out: Antiviral IC50 µg/ml RSV/ HF
  IC50: 1.5 µg/mL
[2]; Human betaherpesvirus 5, Table 1a, HF, format not given, read-out: Antiviral IC50 µg/ml CMV /HF
  IC50: 4 µg/mL
[5]
  Effect on cells @ µg/ml indicated Vero: N@75

## (E)-2,2'-(1,2-Ethenediyl)bis[5-[[4,6-bis[[3-[[3,5-bis(aminocarbonyl)-1-piperedinyl]sulfonyl]phenyl]amino]-1,3,5-triazin-2-yl]benzenesulfonic acid], disodium salt [Example 52]
[1]; [10]
  Antiviral IC50 µg/ml RSV/ HF: 1.5 µg/mL
[1]; Table 1a
  Antiviral IC50 µg/ml RSV/ Vero: 1.5 µg/mL
[3]; at 37 µg/ml
  Effect on cells @ µg/ml indicated HF: L@37
